Where two headings read alike, the source gives them in different places.
Tests used:
Assay type in all cases: cell-based
[1] = system: MOLT-4 cells; assay: CTG (CellTiter-Glo) cell viability assay, MOLT-4; conditions: Homo sapiens, MOLT-4, 72 h, MOLT-4, 3 day; read-out: CTG Cell Viability Assay - MOLT-4 3 day: Average external-IC50
How it was run: (§1)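 Viability read by CellTiter-Glo luminescence after 3 days' compound exposure at 37 °C under 5% CO2, with 10,000 cells per well. Dosing was nine 1:3 dilutions starting at 10 µM, DMSO normalized to 0.2%; IC50 values come from three-parameter logistic curve fitting.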

[2] = system: Caki-2 cells; assay: CTG (CellTiter-Glo) cell viability assay, Caki-2; conditions: Caki-2, 3-day, read-out: CTG Chempartner/PHA- Caki-2 3-day: Average external-IC50
How it was run: as §1

[3] = target: T1, BCL-XL (Homo sapiens, UniProt Q07817); assay: BCL-XL degradation assay in MOLT-4 cells (ELISA, 6 h); conditions: for DC50: read-out: Bcl-xL ELISA in MOLT-4 degradation 6 h: External Abs-DC50
T1 construct: BCL-XL degradation results in MOLT-4 cells for compounds of the invention; endogenous in cells; host or cells: MOLT-4
T1 sequence (Q07817 whole entry): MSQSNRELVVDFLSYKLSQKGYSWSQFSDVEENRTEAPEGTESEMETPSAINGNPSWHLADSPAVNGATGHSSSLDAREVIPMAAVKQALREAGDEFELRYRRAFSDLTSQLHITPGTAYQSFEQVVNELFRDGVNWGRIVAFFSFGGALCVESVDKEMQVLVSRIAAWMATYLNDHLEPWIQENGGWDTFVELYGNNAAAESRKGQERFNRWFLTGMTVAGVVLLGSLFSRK

| SMILES | IC50 [1] [nM] | IC50 [2] [nM] | Dmax [3] [%] | DC50 [3] [nM] | IC50 ([2]; Homo sapiens, CAKI-2, 72 h) [nM] |
| --- | --- | --- | --- | --- | --- |
| Cc1ncsc1-c1ccc(CNC(=O)[C@@H]2C[C@@H](O)CN2C(=O)[C@@H](NC(=O)CCCCCCC(=O)N2CCN(C[C@]3(C)CCC(c4ccc(Cl)cc4)=C(CN4CCN(c5ccc(C(=O)NS(=O)(=O)c6ccc(NCCCN7CCOCC7)c(S(=O)(=O)C(F)(F)F)c6)c(Oc6cnc7[nH]ccc7c6)c5)CC4)C3)CC2)C(C)(C)C)cc1 [I-131] | 100 to 1000 | > 30000 | < 50 | 500 to 1000 | – |
| Cc1ncsc1-c1ccc([C@H](C)NC(=O)[C@@H]2CC(O)CN2C(=O)[C@@H](NC(=O)CCCCCCC(=O)N2CCN(c3ccc(-c4ccc(Cl)cc4)c(CN4CCN(c5ccc(C(=O)NS(=O)(=O)c6ccc(N[C@H](CCN(C)C)CSc7ccccc7)c([N+](=O)[O-])c6)cc5)CC4)c3)CC2)C(C)(C)C)cc1 (some centres unmarked) [I-4] | > 3000 | – | 50 to 75 | 500 to 1000 | > 30000 |
| Cc1ncsc1-c1ccc([C@H](C)NC(=O)[C@@H]2C[C@@H](O)CN2C(=O)[C@@H](NC(=O)CCCCCC(=O)N2CCN(CC[C@H](CSc3ccccc3)Nc3ccc(S(=O)(=O)NC(=O)c4ccc(N5CCN([C@@H](O)c6ccccc6-c6ccc(Cl)cc6)CC5)cc4)cc3S(=O)(=O)C(F)(F)F)CC2)C(C)(C)C)cc1 [I-121] | < 100 | – | > 75 | < 10 | 10000 to 30000 |
| Cc1ncsc1-c1ccc([C@H](C)NC(=O)[C@@H]2C[C@@H](O)CN2C(=O)[C@@H](NC(=O)CCCCCCCC(=O)Nc2ccc(-c3ccc(Cl)cc3)c(CN3CCN(c4ccc(C(=O)NS(=O)(=O)c5ccc(N[C@H](CCN(C)C)CSc6ccccc6)c([N+](=O)[O-])c5)cc4)CC3)c2)C(C)(C)C)cc1 [I-10] | > 3000 | – | 50 to 75 | 100 to 500 | > 30000 |
| C#Cc1ccc([C@H](C)NC(=O)[C@@H]2C[C@@H](O)CN2C(=O)[C@@H](NC(=O)CCCCCC(=O)N2CCN(CCCNc3ccc(S(=O)(=O)NC(=O)c4ccc(N5CCN(CC6=C(c7ccc(Cl)cc7)CC(C)(C)CC6)CC5)cc4Oc4cnc5[nH]ccc5c4)cc3S(=O)(=O)C(F)(F)F)CC2)C(C)(C)C)cc1F [I-105] | 100 to 1000 | – | 50 to 75 | 100 to 500 | > 30000 |
| Cc1ncsc1-c1ccc([C@H](C)NC(=O)[C@@H]2C[C@@H](O)CN2C(=O)[C@@H](NC(=O)CCCCCN(C)CCCNc2ccc(S(=O)(=O)NC(=O)c3ccc(N4CCN(CC5=C(c6ccc(Cl)cc6)CC(C)(C)CC5)CC4)cc3Oc3cnc4[nH]ccc4c3)cc2S(=O)(=O)C(F)(F)F)C(C)(C)C)cc1 [I-69] | > 3000 | – | < 50 | 500 to 1000 | > 30000 |
| Cc1ncsc1-c1ccc([C@H](C)NC(=O)[C@@H]2C[C@@H](O)CN2C(=O)[C@@H](NC(=O)CCCCCC(=O)N2CCN(CC[C@H](CSc3ccccc3)Nc3ccc(S(=O)(=O)NC(=O)c4ccc(N5CCCN(C)CC5)cc4)cc3S(=O)(=O)C(F)(F)F)CC2)C(C)(C)C)cc1 [I-41] | > 3000 | – | < 50 | 500 to 1000 | > 30000 |
| Cc1ncsc1-c1ccc([C@H](C)NC(=O)[C@@H]2C[C@@H](O)CN2C(=O)[C@@H](NC(=O)CCCCC(=O)N2CCN(CC[C@H](CSc3ccccc3)Nc3ccc(S(=O)(=O)NC(=O)c4ccc(N5CCC([C@@H](O)c6ccccc6-c6ccc(Cl)cc6)CC5)cc4)cc3S(=O)(=O)C(F)(F)F)CC2)C(C)(C)C)cc1 [I-109] | 100 to 1000 | – | > 75 | 10 to 100 | > 30000 |
| Cc1ncsc1-c1ccc([C@H](C)NC(=O)[C@@H]2C[C@@H](O)CN2C(=O)[C@@H](NC(=O)CCCCCCC(=O)N2CCN(C[C@]3(C)CCC(c4ccc(Cl)cc4)=C(CN4CCN(c5ccc(C(=O)NS(=O)(=O)c6ccc(NCCCN7CCOCC7)c(S(=O)(=O)C(F)(F)F)c6)c(Oc6cnc7[nH]ccc7c6)c5)CC4)C3)CC2)C(C)(C)C)cc1 [I-65] | < 100 | – | 50 to 75 | 10 to 100 | 10000 to 30000 |
| Cc1ncsc1-c1ccc([C@H](C)NC(=O)[C@@H]2C[C@@H](O)CN2C(=O)[C@@H](NC(=O)CCCCC(=O)N2CCC3(CCN(CC[C@H](CSc4ccccc4)Nc4ccc(S(=O)(=O)NC(=O)c5ccc(N6CCN([C@@H](O)c7ccccc7-c7ccc(Cl)cc7)CC6)cc5)cc4S(=O)(=O)C(F)(F)F)CC3)CC2)C(C)(C)C)cc1 [I-126] | < 100 | – | 50 to 75 | 10 to 100 | < 5000 |
| Cc1ncsc1-c1ccc([C@H](C)NC(=O)[C@@H]2C[C@@H](O)CN2C(=O)[C@@H](NC(=O)CCCCCCN2CCN(CC[C@H](CSc3ccccc3)Nc3ccc(S(=O)(=O)NC(=O)c4ccc(N5CCC([C@@H](O)c6ccccc6-c6ccc(Cl)cc6)CC5)cc4)cc3S(=O)(=O)C(F)(F)F)CC2)C(C)(C)C)cc1 [I-118] | 100 to 1000 | – | > 75 | 10 to 100 | > 30000 |
| Cc1ncsc1-c1ccc([C@H](C)NC(=O)[C@@H]2C[C@@H](O)CN2C(=O)[C@@H](NC(=O)CCCCCCC(=O)N2CCN(C(=O)c3ccc(-c4ccc(Cl)cc4)c(CN4CCN(c5ccc(C(=O)NS(=O)(=O)c6ccc(N[C@H](CCN(C)C)CSc7ccccc7)c([N+](=O)[O-])c6)cc5)CC4)c3)CC2)C(C)(C)C)cc1 [I-6] | > 3000 | – | < 50 | 500 to 1000 | > 30000 |
| Cc1ncsc1-c1ccc([C@H](C)NC(=O)[C@@H]2C[C@@H](O)CN2C(=O)[C@@H](NC(=O)CCCCCC(=O)N2CCCN(CCCNc3ccc(S(=O)(=O)NC(=O)c4ccc(N5CCN(CC6=C(c7ccc(Cl)cc7)CC(C)(C)CC6)CC5)cc4Oc4cnc5[nH]ccc5c4)cc3S(=O)(=O)C(F)(F)F)CC2)C(C)(C)C)cc1 [I-106] | < 100 | – | 50 to 75 | 10 to 100 | > 30000 |
| Cc1ncsc1-c1ccc([C@H](C)NC(=O)[C@@H]2C[C@@H](O)CN2C(=O)[C@@H](NC(=O)CCCCCN2CCN(CCCNc3ccc(S(=O)(=O)NC(=O)c4ccc(N5CCN(CC6=C(c7ccc(Cl)cc7)CC(C)(C)CC6)CC5)cc4Oc4cnc5[nH]ccc5c4)cc3S(=O)(=O)C(F)(F)F)CC2)C(C)(C)C)cc1 [I-74] | 100 to 1000 | – | < 50 | 500 to 1000 | > 30000 |
| Cc1ncsc1-c1ccc([C@H](C)NC(=O)[C@@H]2C[C@@H](O)CN2C(=O)[C@@H](NC(=O)CCCCCC(=O)N2CCN(CC[C@H](CSc3ccccc3)Nc3ccc(S(=O)(=O)NC(=O)c4ccc(N5CC6CC6C5)cc4)cc3S(=O)(=O)C(F)(F)F)CC2)C(C)(C)C)cc1 (some centres unmarked) [I-37] | > 3000 | – | < 50 | 500 to 1000 | > 30000 |
| Cc1ncsc1-c1ccc([C@H](C)NC(=O)[C@@H]2C[C@@H](O)CN2C(=O)[C@@H](NC(=O)CCCCCC(=O)N2CCN(CCCNc3ccc(S(=O)(=O)NC(=O)c4ccc(N5CCC([C@@H](O)c6ccccc6-c6ccc(Cl)cc6)CC5)cc4Oc4cnc5[nH]ccc5c4)cc3S(=O)(=O)C(F)(F)F)CC2)C(C)(C)C)cc1 (single isomer, unassigned) [I-23] | 100 to 1000 | – | < 50 | 500 to 1000 | > 30000 |
| Cc1ncsc1-c1ccc([C@H](C)NC(=O)[C@@H]2C[C@@H](O)CN2C(=O)[C@@H](NC(=O)CCCCCC(=O)N2CCN(CCCNc3ccc(S(=O)(=O)NC(=O)c4ccc(N5CCN(CC6=C(c7ccc(Cl)cc7)CCC(C)(C)C6)CC5)cc4Oc4cnc5[nH]ccc5c4)cc3S(=O)(=O)C(F)(F)F)CC2)C(C)(C)C)cc1 [I-52] | 100 to 1000 | – | 50 to 75 | 100 to 500 | > 30000 |

— patent publication US20260092057A1, “BCL-XL/BCL-2 DEGRADERS AND USES THEREOF” (Kymera Therapeutics, Inc., priority 2022, published 2026)
